US6462055B2, “Alpha-methylbenzyl-containing thiourea inhibitors of herpes viruses containing a phenylenediamine group” (Wyeth, priority 1998, dated 2002)
≈ marks a conversion by molar mass, not a printed value.

Experiments:
[1] = test system: HCMV recombinant mutant virus (RV145); assay: microbe, parasite or virus in culture; format: cell-based, human cytomegalovirus; details: HCMV
Method in brief: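 Read-out is beta-glucuronidase activity in cell lysates 96 h after infection, measured colorimetrically or fluorometrically. Reporter virus RV145 expresses the enzyme under a viral promoter in human foreskin fibroblasts treated with inhibitor.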

HSV-1 = assay: HSV Antiviral (ELISA) Assay in Vero cells; format: cell-based, herpes simplex virus type 1; details: HSV-1, Vero cells
Method in brief: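 Viral replication was quantified by cell-fixed ELISA for HSV glycoprotein D, using a β-galactosidase reporter and fluorogenic umbelliferyl substrate, about 24 h after HSV-1 infection (MOI 0.006) of Vero cells. Compounds, at several concentrations, were added 30 min pre-infection. IC50 was derived from fluorescence relative to the compound-free signal.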

VZV strain Ellen = assay: VZV Antiviral (ELISA) Assay in human foreskin fibroblast cells; format: cell-based, varicella-zoster virus
Method in brief: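 Low-MOI (<0.1) Ellen infection of HFF overnight; cell mix plated 3.5×10^4/well with compound, DMEM + 2% FBS, 3 d, 37° C, 5% CO2. Fix, anti-gpII mAb ELISA, MUG substrate, fluorescence. IC50 vs compound-free signal.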

Row | SMILES | IC50 ug/ml HCMV [1] [µg/mL] | IC50 (ug/ml) HSV (HSV-1) [µg/mL] | IC50 (ug/ml) VZV (VZV strain Ellen) [µg/mL] | % inhibition 10 ug/ml VZV (VZV strain Ellen) [%]
1 | NNC(=O)c1cccc(NC(=S)Nc2ccc(NC(=O)c3ccccc3F)cc2)c1 [Example 463] | >10 | >10 | >10 | 19
2 | Nc1c(Cl)cccc1NC(=S)Nc1ccc(NC(=O)c2c(F)cccc2F)cc1 [Example 465] | >10 | >10 | >10 | 31
3 | O=C(Nc1ccc(NC(=S)Nc2cccc(O)c2)cc1)c1ccccc1F [Example 475] | >10 | 5 (≈ 13.1 µM) | >10 | 28
4 | CC(=O)Nc1cccc(NC(=S)Nc2ccc(NC(=O)c3ccccc3F)cc2)c1 [Example 477] | >10 | >10 | >10 | 15
5 | O=C(Nc1ccc(NC(=S)Nc2ccc3scnc3c2)cc1)c1ccccc1F [Example 484] | >10 | 0.4 (≈ 0.947 µM) | >10 | 28
6 | CN(C)c1ccc(Cl)cc1NC(=S)Nc1ccc(NC(=O)c2ccccc2F)cc1 [Example 490] | 2.5 (≈ 5.64 µM) | 1 (≈ 2.26 µM) | >10 | 68
7 | CC(N=[N+]=[N-])c1ccc(NC(=S)Nc2ccc(NC(=O)c3ccccc3F)cc2)cc1Cl (stereo not drawn) [Example 492] | 2 (≈ 4.26 µM) | >10 | >10 | 32
8 | Nc1nccc(-c2ccc(NC(=S)Nc3ccc(NC(=O)c4ccccc4F)cc3)cc2Cl)n1 [Example 502] | 1.8 (≈ 3.65 µM) | >10 | >10 | 13
9 | CN(C)c1c(Cl)cccc1NC(=S)Nc1ccc(NC(=O)c2c(F)cccc2F)cc1 [Example 504] | 2 (≈ 4.34 µM) | 6 (≈ 13 µM) | 4.5 (≈ 9.76 µM) | 99
10 | O=C(Nc1ccc(NC(=S)NCc2cccc(Cl)c2)cc1)c1ccccc1F [Example 511] | >10 | >10 | >10 | 10
11 | O=C(Nc1ccc(NC(=S)Nc2cc(C(F)(F)F)cc(C(F)(F)F)c2)cc1)c1ccccc1F [Example 517] | 1.1 (≈ 2.19 µM) | >10 | >10 | 5
12 | Nc1c(Cl)cc(NC(=S)Nc2ccc(NC(=O)c3ccccc3F)cc2)cc1Cl [Example 518] | 4 (≈ 8.9 µM) | 0.25 (≈ 0.556 µM) | >10 | 32
13 | Nc1c(Br)cc(NC(=S)Nc2ccc(NC(=O)c3ccccc3F)cc2)cc1Br [Example 519] | 1.7 (≈ 3.16 µM) | 0.4 (≈ 0.743 µM) | >10 | 18
14 | CN(C)c1cc(Cl)cc(NC(=S)Nc2ccc(NC(=O)c3ccccc3F)cc2)c1 [Example 523] | 3.2 (≈ 7.22 µM) | 0.6 (≈ 1.35 µM) | 4 (≈ 9.03 µM) | 75
15 | O=C(Nc1ccc(NC(=S)Nc2ccc3[nH]nnc3c2)cc1)c1c(F)cccc1F [Example 527] | >10 | >10 | >10 | 20
16 | O=C(Nc1ccc(NC(=S)Nc2cc(Br)cc(C(F)(F)F)c2)cc1)c1ccccc1F [Example 531] | 5 (≈ 9.76 µM) | >10 | 6 (≈ 11.7 µM) | –
17 | O=C(Nc1ccc(NC(=S)NCc2ccccc2)cc1)c1ccccc1F [Example 536] | >10 | >10 | >10 | –
18 | O=C(Nc1ccc(NC(=S)NCc2ccc(Cl)c(Cl)c2)cc1)c1ccccc1F [Example 538] | >10 | >10 | 10 (≈ 22.3 µM) | –
19 | O=C(Nc1ccc(NC(=S)NCc2ccc3c(c2)OCO3)cc1)c1ccccc1F [Example 540] | >0.5 | >10 | >10 | –
20 | O=C(Nc1ccc(NC(=S)NCc2cc(C(F)(F)F)cc(C(F)(F)F)c2)cc1)c1ccccc1F [Example 543] | 0.3 (≈ 0.582 µM) | >10 | >10 | –
21 | O=C(Nc1ccc(NC(=S)Nc2ccc(OC(F)(F)F)c(Br)c2)cc1)c1ccccc1F [Example 549] | >10 | >10 | >10 | –
